The values that follow come from patent US10420758B2, “Indolinyl-sulfonamide inhibitors of tankyrase and methods of use thereof” (The Board of Regents of the University of Texas System, priority 2015, dated 2019).

What all share (experiment): PARP profiling, parsylation of immobilized histone
Holding throughout (format): biochemical

For one test, the target named is T1, PARP12 (Homo sapiens, UniProt Q9H0J9).
T1 sequence (Q9H0J9 1-701): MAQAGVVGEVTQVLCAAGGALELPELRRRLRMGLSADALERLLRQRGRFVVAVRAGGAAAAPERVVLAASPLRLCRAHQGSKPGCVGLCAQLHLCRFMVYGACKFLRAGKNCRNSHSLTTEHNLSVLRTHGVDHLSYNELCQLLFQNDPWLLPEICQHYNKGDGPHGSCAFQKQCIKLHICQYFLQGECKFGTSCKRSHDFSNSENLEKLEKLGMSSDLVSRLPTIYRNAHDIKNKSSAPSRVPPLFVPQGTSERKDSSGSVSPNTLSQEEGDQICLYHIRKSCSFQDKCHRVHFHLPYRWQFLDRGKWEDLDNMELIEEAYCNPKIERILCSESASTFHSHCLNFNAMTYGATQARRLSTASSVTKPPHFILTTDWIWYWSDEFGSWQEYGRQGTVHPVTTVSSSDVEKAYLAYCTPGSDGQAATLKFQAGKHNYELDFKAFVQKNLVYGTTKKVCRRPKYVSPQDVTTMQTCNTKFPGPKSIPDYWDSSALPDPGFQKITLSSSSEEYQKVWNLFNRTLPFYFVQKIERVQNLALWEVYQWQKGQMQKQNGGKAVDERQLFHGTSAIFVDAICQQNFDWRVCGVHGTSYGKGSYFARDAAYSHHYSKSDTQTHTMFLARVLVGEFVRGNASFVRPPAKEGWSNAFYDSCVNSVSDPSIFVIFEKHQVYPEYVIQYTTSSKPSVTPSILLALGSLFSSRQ
How it is done:
(§1) Performed by BPS Bioscience Inc., San Diego by following the BPS PARP or TNKS assay kit protocols. The enzymatic reactions were conducted in duplicate at room temperature for 1 hr in a 96 well plate coated with histone substrate. […] of reaction buffer (Tris.HCl, pH 8.0) contains NAD^+, biotinylated NAD^+, activated DNA, recombinant PARP enzyme and 10 μM of the test compound. […] After enzymatic reactions, 50 μL of Streptavidin-horseradish peroxidase was added to each well and the plate was incubated at room temperature for an additional 30 min. 100 μL of developer reagents were added to wells and luminescence was measured using a BioTek Synergy™ 2 microplate reader.

Another test deals with PARP2 (Homo sapiens, UniProt Q9UGN5). How it is done:
as §1

The target of a further test is T2, PARP10 (Homo sapiens, UniProt Q53GL7).
T2 sequence (Q53GL7 1-1025): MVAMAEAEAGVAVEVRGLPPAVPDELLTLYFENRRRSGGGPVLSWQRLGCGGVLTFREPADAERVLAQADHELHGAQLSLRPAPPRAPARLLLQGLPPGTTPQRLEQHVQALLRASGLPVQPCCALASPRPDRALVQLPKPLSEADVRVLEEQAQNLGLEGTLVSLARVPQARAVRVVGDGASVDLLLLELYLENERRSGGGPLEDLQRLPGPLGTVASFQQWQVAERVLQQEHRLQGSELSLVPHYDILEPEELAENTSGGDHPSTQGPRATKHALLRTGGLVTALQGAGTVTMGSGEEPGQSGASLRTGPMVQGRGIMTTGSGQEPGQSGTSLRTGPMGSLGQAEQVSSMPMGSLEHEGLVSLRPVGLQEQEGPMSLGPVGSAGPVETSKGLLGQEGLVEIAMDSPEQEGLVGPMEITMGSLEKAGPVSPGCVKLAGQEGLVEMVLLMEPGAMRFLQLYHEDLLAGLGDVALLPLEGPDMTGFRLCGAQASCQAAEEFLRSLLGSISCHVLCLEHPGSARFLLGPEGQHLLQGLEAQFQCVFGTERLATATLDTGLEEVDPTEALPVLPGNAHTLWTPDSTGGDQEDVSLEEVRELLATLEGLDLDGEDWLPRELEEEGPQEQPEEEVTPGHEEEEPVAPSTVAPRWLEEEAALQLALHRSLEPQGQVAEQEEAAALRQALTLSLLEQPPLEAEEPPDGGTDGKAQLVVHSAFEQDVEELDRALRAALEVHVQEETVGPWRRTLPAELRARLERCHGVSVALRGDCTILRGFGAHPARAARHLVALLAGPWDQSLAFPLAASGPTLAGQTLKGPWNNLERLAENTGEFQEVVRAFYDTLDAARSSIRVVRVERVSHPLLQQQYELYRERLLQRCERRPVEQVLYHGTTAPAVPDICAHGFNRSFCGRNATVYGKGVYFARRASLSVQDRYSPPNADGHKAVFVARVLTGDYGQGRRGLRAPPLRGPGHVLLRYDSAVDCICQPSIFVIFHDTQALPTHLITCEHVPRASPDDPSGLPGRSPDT
How it is done: as §1

A further test deals with T3, PARP8 (Homo sapiens, UniProt Q8N3A8).
T3 sequence (Q8N3A8 1-854): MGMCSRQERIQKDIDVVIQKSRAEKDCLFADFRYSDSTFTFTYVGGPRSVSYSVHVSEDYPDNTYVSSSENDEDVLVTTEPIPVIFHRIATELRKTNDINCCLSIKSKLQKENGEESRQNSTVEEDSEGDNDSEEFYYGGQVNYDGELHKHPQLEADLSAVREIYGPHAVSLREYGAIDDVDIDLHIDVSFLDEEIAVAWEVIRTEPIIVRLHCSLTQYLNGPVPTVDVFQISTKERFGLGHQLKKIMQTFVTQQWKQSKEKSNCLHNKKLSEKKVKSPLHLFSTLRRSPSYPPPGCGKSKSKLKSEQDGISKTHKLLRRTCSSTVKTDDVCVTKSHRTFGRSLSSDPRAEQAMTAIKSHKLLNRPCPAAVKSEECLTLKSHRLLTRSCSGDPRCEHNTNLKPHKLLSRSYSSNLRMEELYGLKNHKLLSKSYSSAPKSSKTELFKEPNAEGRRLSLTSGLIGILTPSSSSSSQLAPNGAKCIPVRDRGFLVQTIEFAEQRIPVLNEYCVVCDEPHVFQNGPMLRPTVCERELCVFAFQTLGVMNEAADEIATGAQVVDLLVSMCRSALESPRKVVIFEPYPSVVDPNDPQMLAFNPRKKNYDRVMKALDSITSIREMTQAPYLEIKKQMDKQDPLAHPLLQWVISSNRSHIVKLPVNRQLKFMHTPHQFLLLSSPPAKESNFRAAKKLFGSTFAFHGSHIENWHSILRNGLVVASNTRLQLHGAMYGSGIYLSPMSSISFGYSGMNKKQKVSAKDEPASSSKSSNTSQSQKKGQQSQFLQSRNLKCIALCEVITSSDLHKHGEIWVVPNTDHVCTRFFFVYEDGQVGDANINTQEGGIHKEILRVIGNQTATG
As to the method:
as §1

Chain of PARP2 (Q9UGN5 whole entry): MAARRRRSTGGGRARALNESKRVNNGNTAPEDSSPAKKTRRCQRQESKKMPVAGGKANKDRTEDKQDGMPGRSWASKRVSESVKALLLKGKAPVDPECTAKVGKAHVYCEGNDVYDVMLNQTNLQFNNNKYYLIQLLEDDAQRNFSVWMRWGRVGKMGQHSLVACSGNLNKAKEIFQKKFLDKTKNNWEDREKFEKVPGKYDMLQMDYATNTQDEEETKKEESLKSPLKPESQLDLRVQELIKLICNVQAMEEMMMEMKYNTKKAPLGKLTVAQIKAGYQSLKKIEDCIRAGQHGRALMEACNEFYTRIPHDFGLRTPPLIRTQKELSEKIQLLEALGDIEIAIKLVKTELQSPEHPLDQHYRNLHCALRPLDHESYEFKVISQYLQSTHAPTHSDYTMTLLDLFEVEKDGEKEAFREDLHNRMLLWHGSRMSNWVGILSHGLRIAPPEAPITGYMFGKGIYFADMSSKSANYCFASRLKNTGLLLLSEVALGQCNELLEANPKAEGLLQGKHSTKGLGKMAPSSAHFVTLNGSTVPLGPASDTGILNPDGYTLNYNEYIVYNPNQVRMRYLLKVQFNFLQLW

For `O=C(c1cc(Cc2n[nH]c(=O)c3ccccc23)ccc1F)N1CCN(C(=O)C2CC2)CC1` [Olaparib], the inhibition (in general, the relative decrease from the control value, in per cent) at 0.02 µM at PARP12 was 84%; on PARP2 it was 100%; at PARP10 it was 99%; at PARP8 it was 96%.

In the case of `O=C(Nc1cccc2cccnc12)c1ccc(N2C(=O)[C@@H]3[C@H](C2=O)[C@@H]2C=C[C@H]3C2)cc1` [IWR-1], the % inhibition (commonly the change of the read-out against control, counted positive when it falls) on PARP12 (IWR compounds 10 μM) was found to be 11%; at PARP2 (IWR compounds 10 μM), 5%; on PARP10 (IWR compounds 10 μM) it was 18%; on PARP8 (IWR compounds 10 μM) it was 1%.

As for `CCN(C(=O)C1CCN(S(=O)(=O)c2cc3c(cc2Br)CCN3C(C)=O)CC1)c1cccc(C)c1` [IWR-8], the inhibition at 10 µM on PARP12 (IWR compounds 10 μM) was 14%; on PARP2 (IWR compounds 10 μM), 3%; at PARP10 (IWR compounds 10 μM) it was 9%; at PARP8 (IWR compounds 10 μM), 0%.
